Assay results published in publication PMC5362409, “Antivascular and antitumor properties of the tubulin-binding chalcone TUB091” (Oncotarget, 2016).

Target: T1, αβ-tubulin (β-tubulin, colchicine site) (Bos taurus, UniProt P81947+Q6B856)
T1 construct: gene TUBB2B; calf brain tubulin; with α-tubulin
Experiment: fluorescence competition: displacement of TUB091 fluorescence by TUB092, giving Ka ([…] GTP)
Type: binding
Conditions: read-out: fluorescence competition: displacement of TUB091 fluorescence by TUB092, giving

## COc1ccc(/C=C(\C)C(=O)c2cc(OC)c3c(c2)OCO3)cc1N [compound 11, (E)-3-(3’’-amino-4’’-methoxyphenyl)-1-(5’-methoxy-3’,4’-methylendioxyphenyl)-2-methylprop-2-en-1-one]
  Kd: 0.0909 µM
